Reference: ChEMBL document CHEMBL3885881, “DrugMatrix”

Organism: Rattus norvegicus
Assay: DrugMatrix - Regimen: Daily Repeat
Assay type: toxicity, organism-based, Sprague-Dawley
Parameters: regimen Daily Repeat, gender Male, age 6-8 weeks
Details: in vivo, po, route oral GAVAGE, […]; for ABSOLUTE BASOPHIL / ABSOLUTE EOSINOPHIL / ABSOLUTE LYMPHOCYTE / ABSOLUTE MONOCYTE / ABSOLUTE SEGMENTED NEUTROPHIL / BASOPHIL / EOSINOPHIL / ERYTHROCYTE COUNT / HEMATOCRIT / HEMOGLOBIN / LEUKOCYTE COUNT / LYMPHOCYTE / MEAN CORPUSCULAR HEMOGLOBIN / MEAN CORPUSCULAR HEMOGLOBIN CONCENTRATION / MONOCYTE / NEUTROPHIL / NUCLEATED RED BLOOD CELLS / PLATELET COUNT: tissue Blood; for ALANINE AMINOTRANSFERASE / ALBUMIN / ALKALINE PHOSPHATASE / ASPARTATE AMINOTRANSFERASE / BLOOD UREA NITROGEN / CARBON DIOXIDE / CHLORIDE / CHOLESTEROL / CREATINE PHOSPHOKINASE / CREATININE / LACTATE DEHYDROGENASE / LIPASE / PHOSPHORUS / POTASSIUM / SODIUM / TOTAL BILIRUBIN / TOTAL PROTEIN / URIC ACID: tissue Plasma
[1] = 10 mg/kg, 120 h, dose level Low, time 5 day
[2] = 1800 mg/kg, 72 h, dose level High, time 3 day
[3] = 1800 mg/kg, 120 h, dose level High, time 5 day

Compound: CN(CCOc1ccc(CC2SC(=O)NC2=O)cc1)c1ccccn1 (stereo not drawn) [ROSIGLITAZONE]
- ABSOLUTE BASOPHIL [1]: 0 CELLS/uL
- ABSOLUTE EOSINOPHIL [1]: 76.67 CELLS/uL
- ABSOLUTE LYMPHOCYTE [1]: 6940.67 CELLS/uL
- ABSOLUTE MONOCYTE [1]: 0 CELLS/uL
- ABSOLUTE SEGMENTED NEUTROPHIL [1]: 749.33 CELLS/uL
- BASOPHIL [1]: 0%
- EOSINOPHIL [1]: 1%
- ERYTHROCYTE COUNT [1]: 4.86 x10E6/uL
- HEMATOCRIT [1]: 32.47%
- HEMOGLOBIN [1]: 12.6 G/DL
- LEUKOCYTE COUNT [1]: 7.77 x10E3/uL
- LYMPHOCYTE [1]: 89.33%
- MEAN CORPUSCULAR HEMOGLOBIN [1]: 25.9 pg
- MEAN CORPUSCULAR HEMOGLOBIN CONCENTRATION [1]: 38.83 G/DL
- MONOCYTE [1]: 0%
- NEUTROPHIL [1]: 9.67%
- NUCLEATED RED BLOOD CELLS [1]: 0 /100WBC
- PLATELET COUNT [1]: 1021.33 x10E3/uL
- ALANINE AMINOTRANSFERASE [1]: 62 u/L
- ALBUMIN [1]: 3.97 G/DL
- ALKALINE PHOSPHATASE [1]: 357.67 u/L
- ASPARTATE AMINOTRANSFERASE [1]: 91 u/L
- BLOOD UREA NITROGEN [1]: 16.67 mg/dL
- CARBON DIOXIDE [1]: 33.33 mmol/L
- CHLORIDE [1]: 101 MEQ/L
- CHOLESTEROL [1]: 67.67 mg/dL
- CREATINE PHOSPHOKINASE [1]: 238 u/L
- CREATININE [1]: 0.13 mg/dL
- LACTATE DEHYDROGENASE [1]: 63.33 u/L
- LIPASE [1]: 13.67 u/L
- PHOSPHORUS [1]: 10.13 mg/dL
- POTASSIUM [1]: 4.62 MEQ/L
- SODIUM [1]: 146.1 MEQ/L
- TOTAL BILIRUBIN [1]: 0.0333 mg/dL
- TOTAL PROTEIN [1]: 5.5 G/DL
- URIC ACID [1]: 0.27 mg/dL
- ABSOLUTE BASOPHIL [2]: 0 CELLS/uL
- ABSOLUTE EOSINOPHIL [2]: 26 CELLS/uL
- ABSOLUTE LYMPHOCYTE [2]: 10365.67 CELLS/uL
- ABSOLUTE MONOCYTE [2]: 125.33 CELLS/uL
- ABSOLUTE SEGMENTED NEUTROPHIL [2]: 983 CELLS/uL
- BASOPHIL [2]: 0%
- EOSINOPHIL [2]: 0.33%
- ERYTHROCYTE COUNT [2]: 5.03 x10E6/uL
- HEMATOCRIT [2]: 31.87%
- HEMOGLOBIN [2]: 12.43 G/DL
- LEUKOCYTE COUNT [2]: 11.5 x10E3/uL
- LYMPHOCYTE [2]: 90.67%
- MEAN CORPUSCULAR HEMOGLOBIN [2]: 24.77 pg
- MEAN CORPUSCULAR HEMOGLOBIN CONCENTRATION [2]: 39.03 G/DL
- MONOCYTE [2]: 0.67%
- NEUTROPHIL [2]: 8.33%
- NUCLEATED RED BLOOD CELLS [2]: 0 /100WBC
- PLATELET COUNT [2]: 1207.33 x10E3/uL
- ALANINE AMINOTRANSFERASE [2]: 77.67 u/L
- ALBUMIN [2]: 3.97 G/DL
- ALKALINE PHOSPHATASE [2]: 304.33 u/L
- ASPARTATE AMINOTRANSFERASE [2]: 99.67 u/L
- BLOOD UREA NITROGEN [2]: 14.67 mg/dL
- CARBON DIOXIDE [2]: 29.33 mmol/L
- CHLORIDE [2]: 103 MEQ/L
- CHOLESTEROL [2]: 44.67 mg/dL
- CREATINE PHOSPHOKINASE [2]: 406.67 u/L
- CREATININE [2]: 0.29 mg/dL
- LACTATE DEHYDROGENASE [2]: 107.33 u/L
- LIPASE [2]: 23.33 u/L
- PHOSPHORUS [2]: 8.37 mg/dL
- POTASSIUM [2]: 4.78 MEQ/L
- SODIUM [2]: 144.7 MEQ/L
- TOTAL BILIRUBIN [2]: 0.17 mg/dL
- TOTAL PROTEIN [2]: 5.07 G/DL
- URIC ACID [2]: 0.43 mg/dL
- ABSOLUTE BASOPHIL [3]: 0 CELLS/uL
- ABSOLUTE EOSINOPHIL [3]: 16.67 CELLS/uL
- ABSOLUTE LYMPHOCYTE [3]: 4629 CELLS/uL
- ABSOLUTE MONOCYTE [3]: 80.67 CELLS/uL
- ABSOLUTE SEGMENTED NEUTROPHIL [3]: 707 CELLS/uL
- BASOPHIL [3]: 0%
- EOSINOPHIL [3]: 0.33%
- ERYTHROCYTE COUNT [3]: 5.6 x10E6/uL
- HEMATOCRIT [3]: 34.33%
- HEMOGLOBIN [3]: 13.27 G/DL
- LEUKOCYTE COUNT [3]: 5.43 x10E3/uL
- LYMPHOCYTE [3]: 85.33%
- MEAN CORPUSCULAR HEMOGLOBIN [3]: 23.8 pg
- MEAN CORPUSCULAR HEMOGLOBIN CONCENTRATION [3]: 38.7 G/DL
- MONOCYTE [3]: 1.33%
- NEUTROPHIL [3]: 13%
- NUCLEATED RED BLOOD CELLS [3]: 0 /100WBC
- PLATELET COUNT [3]: 1134.33 x10E3/uL
- ALANINE AMINOTRANSFERASE [3]: 160.33 u/L
- ALBUMIN [3]: 3.97 G/DL
- ALKALINE PHOSPHATASE [3]: 307 u/L
- ASPARTATE AMINOTRANSFERASE [3]: 119 u/L
- BLOOD UREA NITROGEN [3]: 16 mg/dL
- CARBON DIOXIDE [3]: 26.67 mmol/L
- CHLORIDE [3]: 98.67 MEQ/L
- CHOLESTEROL [3]: 66.33 mg/dL
- CREATINE PHOSPHOKINASE [3]: 501.67 u/L
- CREATININE [3]: 0.25 mg/dL
- LACTATE DEHYDROGENASE [3]: 115 u/L
- LIPASE [3]: 9.67 u/L
- PHOSPHORUS [3]: 7.87 mg/dL
- POTASSIUM [3]: 4.33 MEQ/L
- SODIUM [3]: 141.6 MEQ/L
- TOTAL BILIRUBIN [3]: 0.2 mg/dL
- TOTAL PROTEIN [3]: 5.1 G/DL
- URIC ACID [3]: 0.3 mg/dL
